Laboratory results taken from patent US20130224730A1, “PEPTIDE LIGANDS” (ARIZONA BOARD OF REGENTS ACTING FOR AND ON BEHALF OF …, priority 2009, published 2013).

Assays:
[1] = test system: G2.4 Minerva nVLP (norovirus-like particles, VP1 capsid protein); assay: Peptide affinity column capture and elution of nVLP from tobacco cell lysate; settings: nVLP1 immobilized on a bead
Text: Coupling to Support: All 6 candidate peptides were synthesized by solid-phase peptide synthesis using standard FMOC chemistry and subsequently cleaved off the resin. The candidate peptides were attached to an iodoacetyl functionalized affinity matrix at a specifically determined level. The benefits of coupling our peptides to the affinity matrix as opposed to direct synthesis onto the bead are that it allows for greater control of the levels of peptide that are immobilized. The suitability of a ligand for affinity chromatography depends on its ability to bind the target molecule specifically and reversibly with an adequate affinity. […]
To test the recovery yield of the column, cell lysate containing ˜500 μg of VP1 (as measured by SDS-PAGE) was loaded on the column and ˜470 μg of VP1 was recovered for a 94% yield. The dynamic binding capacity of the chromatography media was determined and is defined as the amount of target protein that the media binds under actual flow conditions before significant breakthrough of unbound protein occurs. […]
Briefly, a large volume of VP1 containing lysate was prepared and its absorbance at 280 nm measured. This solution was continually loaded onto the column and the flow through measured for absorbance. The point at which breakthrough occurred, defined as 10% absorbance of the lysate, was used to calculate the binding capacity. […]

[2] = test system: G1.1 nVLP; assay: Peptide affinity column binding and elution of G1.1 nVLP produced in insect cells; set-up: species or system norovirus; settings: eluted under same conditions as G2.4 nVLP
Text: Noroviruses bind to histo-blood group antigens (HBGAs), which are carbohydrates that contain structurally related saccharide moieties, wherein type 1 and type 2 carbohydrate core structures constitute antigenically distinct variants. Several, but not all, noroviruses specifically bind to HBGAs, which are believed to function as receptors for docking and entry into the cell during infection. As previously mentioned, peptide nVLP1 was selected to specifically bind to G2.4 Minerva nVLPs. […] We therefore have identified at ligand that has cross reactivity to G1 and G2 capsid proteins in VLPs, with homology between genogroups I and II around 50%.

Sequence: LLYNKTFPHGRWSPSYPGSC (Peptide Ligand) [nVLP1, 20 mer peptide ligand for norovirus-like particles, optimal ligand]
- capture of nVLP from cell lysate [1]: able to capture nVLP from cell lysate
- binding to G1.1 nVLP (cross reactivity G1/G2) [2]: shown to bind G1.1 nVLP
